Source: ChEMBL document CHEMBL4680219, “Structure-thermodynamics-relationships of hepatitis C viral NS3 protease inhibitors” (Eur J Med Chem, 2020)

Key:
[1] = Binding affinity to HCV NS3/4a protease by isothermal titration calorimetry; parameters: species or system Hepacivirus hominis
[2] = Inhibition of HCV NS3/4a protease using biotin-DDIVPCSMSY[125I]TW as substrate by radiometric assay; parameters: species or system Hepacivirus hominis

SMILES: C=CC1C[C@@]1(NC(=O)[C@@H]1C[C@@H](Oc2ccnc(-c3ccccc3)c2)CN1C(=O)[C@@H](NC(=O)OC(C)(C)C)C(C)(C)C)C(=O)O (some centres undefined)
- Kd [1]: 830 nM

SMILES: C=CC1C[C@@]1(NC(=O)[C@@H]1C[C@@H](Oc2ccncc2)CN1C(=O)[C@@H](NC(=O)OC(C)(C)C)C(C)(C)C)C(=O)O (some centres undefined)
- Ki [2]: 29000 nM
- Kd [1]: 13500 nM

SMILES: C=CC1C[C@@]1(NC(=O)[C@@H]1C[C@@H](Oc2cc(-c3ccccc3)nc3ccccc23)CN1C(=O)[C@H](CC)NC(=O)OC(C)(C)C)C(=O)O (some centres undefined)
- Kd [1]: 900 nM

SMILES: C=CC1C[C@@]1(NC(=O)[C@@H]1C[C@@H](Oc2cc(-c3ccccc3)nc3ccccc23)CN1C(=O)[C@@H](NC(=O)OC(C)(C)C)C(C)C)C(=O)O (some centres undefined)
- Kd [1]: 250 nM

SMILES: C=CC1C[C@@]1(NC(=O)[C@@H]1C[C@@H](Oc2cc(-c3ccccc3)nc3ccccc23)CN1C(=O)CNC(=O)OC(C)(C)C)C(=O)O (some centres undefined)
- Kd [1]: 77000 nM

SMILES: C=CC1C[C@@]1(NC(=O)[C@@H]1C[C@@H](Oc2ccnc3cc(OC)ccc23)CN1C(=O)[C@@H](NC(=O)OC(C)(C)C)C(C)(C)C)C(=O)O (some centres undefined)
- Ki [2]: 50 nM
- Kd [1]: 180 nM

SMILES: C=CC1C[C@@]1(NC(=O)[C@@H]1C[C@@H](Oc2ccnc3ccccc23)CN1C(=O)[C@@H](NC(=O)OC(C)(C)C)C(C)(C)C)C(=O)O (some centres undefined)
- Ki [2]: 140 nM
- Kd [1]: 190 nM

SMILES: C=CC1C[C@@]1(NC(=O)[C@@H]1C[C@@H](Oc2cc(-c3ccccc3)nc3ccccc23)CN1C(=O)[C@H](C)NC(=O)OC(C)(C)C)C(=O)O (some centres undefined)
- Kd [1]: 2630 nM

SMILES: C=CC1C[C@@]1(NC(=O)[C@@H]1C[C@@H](Oc2cc(-c3ccccc3)nc3cc(OC)ccc23)CN1C(=O)[C@@H](NC(=O)OC(C)(C)C)C(C)(C)C)C(=O)O (some centres undefined)
- Ki [2]: 20 nM
- Kd [1]: 19 nM

SMILES: C=CC1C[C@@]1(NC(=O)[C@@H]1C[C@@H](Oc2cc(-c3ccccc3)nc3ccccc23)CN1C(=O)[C@@H](NC(=O)OC(C)(C)C)C(C)(C)C)C(=O)O (some centres undefined)
- Kd [1]: 100 nM
